Experimental data published in PubChem BioAssay AID1918939 (Molecular Pharmacology Branch, DTP, NCI, 2023).

System: 653999-131-R-J2-PDC complex spheroid viability
Assay: Anticancer human tumor 653999-131-R-J2-PDC patient-derived lung adenocarcinoma cell line growth inhibition
Details: for IC50: curve of first compound; for viability, T/C: stronger effect = lower value
In short: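 Complex spheroids of tumor cells with HUVEC and human MSCs, exposed to iadademstat combined with other agents. Each agent tested in half-log steps from near clinical Cmax (else 10 microM top), DMSO ≤0.25%.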

[1] = second compound 0.1 µM, first compound 0.00316 µM
[2] = second compound 0.1 µM, first compound 0.01 µM
[3] = second compound 0.1 µM, first compound 0.0316 µM
[4] = second compound 0.1 µM, first compound 0.1 µM
[5] = second compound 0.1 µM, first compound 0.316 µM
[6] = second compound 0.1 µM, first compound 1 µM
[7] = second compound 0.316 µM, first compound 0.00316 µM
[8] = second compound 0.316 µM, first compound 0.01 µM
[9] = second compound 0.316 µM, first compound 0.0316 µM
[10] = second compound 0.316 µM, first compound 0.1 µM
[11] = second compound 0.316 µM, first compound 0.316 µM
[12] = second compound 0.316 µM, first compound 1 µM
[13] = second compound 1 µM, first compound 0.00316 µM
[14] = second compound 1 µM, first compound 0.01 µM
[15] = second compound 1 µM, first compound 0.0316 µM
[16] = second compound 1 µM, first compound 0.1 µM
[17] = second compound 1 µM, first compound 0.316 µM
[18] = second compound 1 µM, first compound 1 µM
[19] = second compound 3.16 µM, first compound 0.00316 µM
[20] = second compound 3.16 µM, first compound 0.01 µM
[21] = second compound 3.16 µM, first compound 0.0316 µM
[22] = second compound 3.16 µM, first compound 0.1 µM
[23] = second compound 3.16 µM, first compound 0.316 µM
[24] = second compound 3.16 µM, first compound 1 µM
[25] = second compound 10 µM, first compound 0.00316 µM
[26] = second compound 10 µM, first compound 0.01 µM
[27] = second compound 10 µM, first compound 0.0316 µM
[28] = second compound 10 µM, first compound 0.1 µM
[29] = second compound 10 µM, first compound 0.316 µM
[30] = second compound 10 µM, first compound 1 µM
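Also: spheroids exposed to agents for seven days before readout.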

Row | SMILES | IC50 (second compound 0.1 µM) | IC50 (second compound 0.316 µM) | IC50 (second compound 1 µM) | IC50 (second compound 3.16 µM) | IC50 (second compound 10 µM) | viability, T/C [3] | viability, T/C [4] | viability, T/C [5] | viability, T/C [6] | viability, T/C [9] | viability, T/C [10] | viability, T/C [11] | viability, T/C [12] | viability, T/C [15] | viability, T/C [16] | viability, T/C [17] | viability, T/C [18] | viability, T/C [21] | viability, T/C [22] | viability, T/C [23] | further results
1 | CC1COCCN1c1cc(-c2ccnn2C)c2ccnc(-c3ccn[nH]3)c2n1 (stereo not given) + NC1CC1c1ccc(-c2cccc(O)c2)cc1 | 5.31 nM | < 3.16 nM | < 3.16 nM | < 3.16 nM | < 3.16 nM | 44.3% | 29.7% | 42.7% | 45.7% | 36.7% | 36.6% | 36.1% | 48.5% | 36.8% | 32.7% | 31% | 36.3% | 36.5% | 28.8% | 36.1% | viability, T/C [1]: 52%; viability, T/C [2]: 50%; viability, T/C [7]: 47.7%; viability, T/C [8]: 44.4%; viability, T/C [13]: 45.5%; viability, T/C [14]: 47%; viability, T/C [19]: 49.5%; viability, T/C [20]: 45.5%; viability, T/C [24]: 39.7%; viability, T/C [25]: 47.5%; viability, T/C [26]: 46.6%; viability, T/C [27]: 39.5%; viability, T/C [28]: 29%; viability, T/C [29]: 29.7%; viability, T/C [30]: 34.7%
2 | COc1ccc([C@@H](O)c2cc(-c3ncnc4cc(N5CCOCC5)ccc34)c(F)cc2Cl)nn1 + NC1CC1c1ccc(-c2cccc(O)c2)cc1 | 2810 nM | 1250 nM | 972 nM | 1130 nM | 968 nM | 79.2% | 84.6% | 72.1% | 55% | 74.1% | 86.5% | 65.8% | 51.1% | 85.6% | 74.3% | 70.2% | 49.3% | 77.4% | 71.5% | 63.2% | viability, T/C (second compound 0.1 µM, first compound 3.16 µM): 54.1%; viability, T/C (second compound 0.1 µM, first compound 10 µM): 28.5%; viability, T/C (second compound 0.316 µM, first compound 3.16 µM): 40.7%; viability, T/C (second compound 0.316 µM, first compound 10 µM): 26.5%; viability, T/C (second compound 1 µM, first compound 3.16 µM): 31.9%; viability, T/C (second compound 1 µM, first compound 10 µM): 24.4%; viability, T/C [24]: 49.5%; viability, T/C (second compound 3.16 µM, first compound 3.16 µM): 39.4%; viability, T/C (second compound 3.16 µM, first compound 10 µM): 22.6%; viability, T/C [27]: 71.2%; viability, T/C [28]: 70.6%; viability, T/C [29]: 58.2%; viability, T/C [30]: 53.3%; viability, T/C (second compound 10 µM, first compound 3.16 µM): 33%; viability, T/C (second compound 10 µM, first compound 10 µM): 26.1%
3 | O=C(C=Cn1cnc(-c2cc(C(F)(F)F)cc(C(F)(F)F)c2)n1)NNc1cnccn1 + NC1CC1c1ccc(-c2cccc(O)c2)cc1 | 14.8 nM | 6.9 nM | < 3.16 nM | < 3.16 nM | < 3.16 nM | 47.5% | 38.8% | 39% | 29.2% | 44.3% | 34.9% | 37.2% | 31.8% | 43% | 34.2% | 27.2% | 27.4% | 38.8% | 41.1% | 30% | viability, T/C [1]: 53.4%; viability, T/C [2]: 53.9%; viability, T/C [7]: 54%; viability, T/C [8]: 48.3%; viability, T/C [13]: 47.8%; viability, T/C [14]: 51.5%; viability, T/C [19]: 46.4%; viability, T/C [20]: 45.8%; viability, T/C [24]: 24.8%; viability, T/C [25]: 49.5%; viability, T/C [26]: 48.8%; viability, T/C [27]: 39.5%; viability, T/C [28]: 39.6%; viability, T/C [29]: 33.7%; viability, T/C [30]: 27%
